The values that follow come from PMC4515504 (Evidence-based Complementary and Alternative Medicine : eCAM, 2015).

The experiment deals with T1, alpha-glucosidase (from Bacillus stearothermophilus).
T1 construct: gene maltase
Description: pNPG hydrolysis, Lineweaver-Burk plot. The class given is biochemical, Geobacillus stearothermophilus. Particulars: control without extract; pNPG 0.08-5 mg/mL, 37°C, 20 min; unreliable: Km extrapolated above the tested substrate range. The text has this: pNPG hydrolysis, Lineweaver-Burk plot on alpha-glucosidase (from Bacillus stearothermophilus)

Turning to `O=[N+]([O-])c1ccc(O[C@H]2O[C@H](CO)[C@@H](O)[C@H](O)[C@H]2O)cc1` [p-nitrophenyl glucopyranoside], the “Alpha-glucosidase / K m” value is 17.39 mg/mL.
